Data set [1] relates to c-kit. The experiment in a line: FACS-based c-kit degradation assay in Kasumi-1 cells. The class given is cell-based, human. Conditions: about 18 h, compounds at 0.5 and 0.05 μM, 17-AAG at 0.5 μM. As to the method: (§1) Two leukemia cell lines, HEL92.1.7 and Kasumi-1, were used for testing c-kit degradation induced by Hsp90 inhibitors of the invention. […] The cells were collected and centrifuged (SORVALL RT 6000D) at 1200 rpm for 5 min. The supernatants were discarded, and the cells were washed one time with 1×PBS. After centrifugation the cells were stained with FITC conjugated c-kit antibody (MBL International, Cat# K0105-4) in […] 1×PBS at 4° C. for 1 h. The samples were read and analysized with FACSCalibur flow cytometer (Becton Dicknson).

Data set [2] deals with c-kit. The experiment in a line: FACS-based c-kit degradation assay in HEL92.1.7 cells. The note with it: about 18 h, compounds at 0.5 and 0.05 μM, 17-AAG at 0.5 μM. Format: cell-based. Here is the method:
as §1

Data set [3] concerns c-Kit tyrosine kinase receptor (N822K mutation). As to the kind of experiment: Western blot analysis of c-Kit in Kasumi-1 cells. The note with it: 100 nM and 400 nM. The class given is cell-based, human. An excerpt:
The results of the FACS analysis were confirmed with Western blot analysis (see FIG. 5). […] In contrast, 17-AAG had no effect of c-Kit protein levels.
For orientation: In western blotting, separated proteins are transferred to a membrane and probed.

Data set [4] relates to phosphorylated Bcr-Abl. The experiment in a line: Degradation of Bcr-Abl in KU812 cells (Western blot). Conditions: 18 hours. The class given is cell-based. As to the method: KU812 chronic myeloid leukemia cells (ATCC) (2×10^6 cells), which harbor the Philadelphia chromosome that produces Bcr-Abl tyrosine kinase, were treated (0.1 μM and 1.0 μM) with either Compound 226, 17-AAG or 17-DMAG. After 18 hours, the cells were lysed with 1× lysis buffer, and a western blot was perform using anti-BCR-ABL antibody to detect phosphorylated Bcr-Abl.

The test system of data set [5] is Karpas-299 cells (NPM-ALK). As to the kind of experiment: Cell survival in Karpas-299 cells (Cell Counting Kit-8). Format: cell-based, human. Conditions: 72 hours. Here is the method:
Growth of this tumor cell line is dependent upon the expression of the NPM-ALK fusion protein. Karpas-299 cells (20,000 cells/well) were cultured in 96-well plates and maintained at 37° C. for several hours. The cells were incubated at 37° C. for 72 hours with various concentrations of compound 226 of the invention, 17AAG, and 17DMAG. 17AAG and 17DMAG are Hsp90 inhibitors that are currently in clinical trials and are used here as positive controls for Hsp90 inhibition. Cell survival was measured with Cell Counting Kit-8 (Dojindo Laboratories, Cat # CK04).
(Tetrazolium dyes change colour on reduction, which living cells bring about.)

Data set [6] has as its system A375 cells (B-raf V600E). As to the kind of experiment: Cell survival in A375 melanoma cells (Cell Counting Kit-8). Format: cell-based, human. The note with it: 72 hours. Here is the method: Human melanoma cell line, A375 (2×10^6 cells), which contains the V600E mutation in the B-raf protein that confers constitutive […] kinase activity, was obtained from American Type Culture Collection. A375 cells (20,000 cells/well) were cultured in 96-well plates and maintained at 37° C. for several hours. The cells were incubated at 37° C. for 72 hours with various concentrations of compound 226, 17AAG or 17DMAG. 17AAG and 17DMAG are Hsp90 inhibitors that are currently in clinical trials and are used here as positive controls for Hsp90 inhibition. Cell survival was measured with Cell Counting Kit-8 (Dojindo Laboratories, Cat # CK04).

Data set [7] deals with human tumor cell line MDA-MB-435S. The experiment in a line: MDA-MB-435S nude mouse xenograft model. The class given is in vivo. Conditions: nude mice, 300 mg/kg body weight IP, 5 times per week for 3 weeks, versus vehicle. As to the method: FBS was obtained from Sigma-Aldrich Corp. (St. Louis, Mo., USA), and all other reagents were obtained from Invitrogen Corp. (Carlsbad, Calif., USA). Approximately 4−5×10 (6) cells that had been cryopreserved in liquid nitrogen were rapidly thawed at 37° C. and transferred to a 175 cm^2 tissue culture flask containing 50 ml of growth media and then incubated at 37° C. in a 5% CO2 incubator. The growth media was replaced every 2-3 days until the flask became 90% confluent, typically in 5-7 days. To passage and expand the cell line, a 90% confluent flask was washed with 10 ml of room temperature phosphate buffered saline (PBS) and the cells were disassociated by adding 5 ml 1× Trypsin-EDTA (Invitrogen) and incubating at 37° C. until the cells detached from the surface of the flask. To inactivate the trypsin, 5 ml of growth media was added and then the contents of the flask were centrifuged to pellet the cells. The supernatant was aspirated and the cell pellet was resuspended in 10 ml of growth media and the cell number determined using a hemocytometer. […]
Six to eight week old, female Crl:CD-1-nuBR (nude) mice were obtained from Charles River Laboratories (Wilmington, Mass., USA). […] Tumor volumes (V) were calculated by caliper measurement of the width (W), length (L) and thickness (T) of tumors using the following formula: V=[…]×(L×W×T). […]

Data set [8] relates to MV 4-11 cells (FLT3-ITD). As to the kind of experiment: Cell survival in MV-4-11 cells (Cell Counting Kit-8). Format: cell-based, human. Conditions: Homo sapiens, MV4-11, 72 hours. Here is the method:
Human acute myelogenous leukemia (AML) cell line, MV 4-11 (ATCC #CRL-9591), was obtained from the American Type Culture Collection (ATCC; Manassas, Va., USA). Growth of this tumor cell line is dependent upon the expression of an activated form of the FLT3 tyrosine kinase receptor carrying an internal tandem duplication (ITD) mutation, which is the most common molecular defect associated with AML (K. W. Yee et al., Blood 100:2941-2949, 2002). MV 4-11 cells (20,000 cells/well) were cultured in 96-well plates and maintained at 37° C. for several hours. The cells were incubated at 37° C. for 72 hours with various concentrations of compounds of the invention, 17AAG, or DMAG. 17AAG and DMAG are Hsp90 inhibitors that are currently in clinical trials and are used here as positive controls for Hsp90 inhibition. Cell survival was measured with Cell Counting Kit-8 (Dojindo Laboratories, Cat # CK04).

The test system of data set [9] is Kasumi-1 cells (c-Kit N822K). As to the kind of experiment: Cell survival in Kasumi-1 cells (Cell Counting Kit-8). Format: cell-based, human. Conditions: Homo sapiens, 72 hours. As to the method:
Kasumi-1 cells (20,000 cells/well) were cultured in 96-well plates and maintained at 37° C. for several hours. […] 17AAG and DMAG are Hsp90 inhibitors that are currently in clinical trials and are used here as positive controls for Hsp90 inhibition. […] Cell survival was measured with Cell Counting Kit-8 (Dojindo Laboratories, Cat # CK04).

Data set [10] relates to K562 cells (Bcr-Abl). The experiment in a line: Cell survival in K562 cells (Cell Counting Kit-8). Format: cell-based, human. Conditions: Homo sapiens, 72 hours. Here is the method:
Growth of this tumor cell line is dependent upon the expression of the Bcr-Abl fusion protein (C. Gambacarti-Passerini et al., Blood Cells Mol. Dis. 23:380-394, 1997). K562 cells (20,000 cells/well) were cultured in 96-well plates and maintained at 37° C. for several hours. […] 17AAG, DMAG, and Radicical are Hsp90 inhibitors that are currently in clinical trials and are used here as positive controls for Hsp90 inhibition. […] Cell survival was measured with Cell Counting Kit-8 (Dojindo Laboratories, Cat # CK04).

Consider nine compounds from patent US20080004266A1, “Method for treating proliferative disorders associated with protooncogene products” (priority 2006, published 2008).

Molecules are shown by their SMILES. “Also recorded” adds a separate entry of the source.

As to `C=CCNC1=C2C[C@@H](C)C[C@H](OC)[C@H](O)[C@@H](C)/C=C(\C)[C@H](OC(N)=O)[C@@H](OC)/C=C\C=C(/C)C(=O)NC(=CC1=O)C2=O` [Compound 17-AAG, 17-allylamino-17-demethoxygeldanamycin, reference compound], the “c-kit degradation (c-kit positive population, FACS)” value (“c-kit degradation” for short) in data set [1] and in data set [2] was “could not induce c-kit degradation” each time. Further, the “c-Kit protein levels (Western blot)” value in data set [3] is on record as “no effect”.

With `CO[C@H]1/C=C\C=C(/C)C(=O)NC2=CC(=O)C(NCCN(C)C)=C(C[C@@H](C)C[C@H](OC)[C@H](O)[C@@H](C)/C=C(\C)[C@@H]1OC(N)=O)C2=O` [Compound 17-DMAG], the “degradation of phosphorylated Bcr-Abl” value was “partial degradation” in data set [4] (0.1 μM) and “complete degradation” in [4] (1.0 μM).

Take `CO[C@H]1/C=C\C=C(/C)C(=O)NC2=CC(=O)C(NCCN(C)C)=C(C[C@@H](C)C[C@H](OC)[C@H](O)[C@@H](C)/C=C(\C)[C@@H]1OC(N)=O)C2=O` [Compound 17DMAG, 17-(2-dimethylaminoethyl-1)amino-17-desmethoxygeldanamycin]: the values for the IC50 in data set [5] and in data set [6] were 62 nM and 4 nM, respectively.

Consider `CCc1cc(-c2nnc(S)n2-c2cccc3ccccc23)c(O)cc1O` [Compound 49, 3-(2,4-Di-hydroxy-5-ethyl-phenyl)-4-(naphthalen-1-yl)-5-mercapto-triazole], for which, in [7], the “toxicity (effect on body weights)” value is reported as “not toxic; also recorded: not associated with significant toxicity”.

Take `CCc1cc(-c2nnc(S)n2-c2ccc(OC)c3c2ccn3C(C)C)c(O)cc1O` [Compound 188, 3-(2,4-Dihydroxy-5-ethyl-phenyl)-4-(1-isopropyl-7-methoxy-indol-4-yl)-5-mercapto-[1,2,4]triazole]: the IC50 came to 25 nM in data set [8] and 72 nM in data set [9]. Also, the “c-kit degradation” value in data set [1] and in [2] was “induced c-kit degradation” throughout.

In the case of `CCCn1ccc2c(-n3c(S)nnc3-c3cc(C4CC4)c(O)cc3O)ccc(OC)c21` [Compound 205, 3-(2,4-di-hydroxy-5-cyclopropyl-phenyl)-4-(1-propyl-7-methoxy-indol-4-yl)-5-mercapto-[1,2,4] triazole], in data set [8], the IC50 came out at 49 nM.

Consider `COc1ccc(-n2c(S)nnc2-c2cc(C(C)C)c(O)cc2O)c2ccn(C(C)C)c12` [Compound 208, 3-(2,4-di-hydroxy-5-isopropyl-phenyl)-4-(1-isopropyl-7-methoxy-indol-4-yl)-5-mercapto-[1,2,4] triazole], for which the IC50 stood at 20 nM in data set [8] and 49 nM in [9].

For `CC(C)c1cc(-c2nnc(S)n2-c2ccc3c(ccn3C)c2)c(O)cc1O` [Compound 221, 3-(2,4-di-hydroxy-5-isopropyl-phenyl)-4-(N-methyl-indol-5-yl)-5-mercapto-[1,2,4] triazole], the “c-kit degradation” value in data set [1] and in data set [2] was “induced c-kit degradation” in each case. Moreover, the “c-Kit protein levels (Western blot)” value in [3] is listed as “induced the degradation of c-Kit”.

The compound `C[C@@H]1C[C@H]2O[C@@H]2/C=C\C=C\C(=O)Cc2c(Cl)c(O)cc(O)c2C(=O)O1` [Radicical, Radicicol] displayed an IC50 in data set [10] of 331 nM.

One may read the IC50 as the concentration that inhibits the measured activity by half. High values mean weaker potency, low ones greater potency.
